{"source": "patent US20230115476A1", "about": "“DIETARY BUTYRATE AND ITS USES” (SOCIETE DES PRODUITS NESTLE S.A., priority 2019, published 2023)", "key": {"[1]": {"tested_on": "Enterobacteriaceae, Salmonella", "settings": "following oral streptomycin administration; Byndloss 2017, Rivera-Chavez 2016; cited from earlier work"}, "[2]": {"tested_on": "rabbit gastric lipase (RGL) followed by porcine pancreatic lipase (PPL)", "test": "Sequential in vitro digestion, simulated gastric fluid (SGF) then SIF, pH-stat", "type": "in vitro ADME", "protocol": "(§1) 10 wt% oil in water emulsions stabilised by 0.3 wt% polyoxyethylene sorbitan mono-oleate (Tween® 80) were prepared by mixing the Tween 80 into the oil phase at 40° C., then mixing with the water phase using a magnetic stirrer. An emulsion was then created using a Hielscher UP 400S ultrasonic probe homogeniser equipped with a 5 mm diameter rod-like probe by applying 100% amplitude at 100% cycle for 2 minutes whilst the sample was cooled using ice water.\nThe lipid emulsion (2 mL) containing 200 mg of fat was subjected to gastrointestinal in vitro lipolysis. […] For gastric digestion, the sample was incubated for 90 minutes with 8.5 mL of simulated gastric fluid (SGF), which consisted of 150 mM NaCl, 450 U/mL pepsin, 18 U/mL rabbit gastric lipase at 37° C. and a pH of 5.5.\nThe intestinal digestion step was performed in the pH stat where the pH was kept constant at 6.8 by addition of NaOH (0.05 M). […] The intestinal digestion step starts when the temperature reaches 37 ± 0.5° C. The pH was adjusted to pH 6.8 and after incubation of two minutes at this pH and temperature, a pancreatin solution (5 mM tris, 150 mM NaCl at pH 6.8) was added. The final composition of the intestinal fluid was 10 mM CaCl2, 12 mM mixed bile salts, 0.75 mM phospholipid, 150 mM NaCl and 4 mM tris(hydroxymethyl)aminomethane buffer. The intestinal digestion step was carried out for 3 hours in a titration manager from Radiometer. During the intestinal phase of digestion, the kinetics of digestion were followed using a pH-stat (TIM856, Radiometer) technique and expressed as titratable acid (rather than fatty acid) that was calculated by the equation: […]\n(§2) Since the digestion of dietary lipids involves lipases of both gastric and intestinal origin, lipid digestibility was assessed using two digestion models i) simulated intestinal fluid (SIF) with porcine pancreatic lipase (PPL) and ii) sequential digestion in simulated gastric fluid (SGF) with rabbit gastric lipase (RGL) followed by simulated intestinal fluid (SIF) with porcine pancreatic lipase (PPL)."}, "[3]": {"tested_on": "porcine pancreatic lipase (PPL)", "test": "In vitro lipolysis in simulated intestinal fluid (SIF), pH-stat", "type": "in vitro ADME", "protocol": "as §1\nThe lipid emulsion (2 mL) containing 200 mg of fat was subjected to gastrointestinal in vitro lipolysis. […]\nThe intestinal digestion step was performed in the pH stat where the pH was kept constant at 6.8 by addition of NaOH (0.05 M). […] During the intestinal phase of digestion, the kinetics of digestion were followed using a pH-stat (TIM856, Radiometer) technique and expressed as titratable acid (rather than fatty acid) that was calculated by the equation: […]\nas §2"}, "colon epithelial cells": {"tested_on": "colon epithelial cells", "settings": "Gillis et al. 2018; cited from earlier work"}}}
{"smiles": "CCCC(=O)OCC(COC(=O)CCC)OC(=O)CCC", "note": "[tributyrin]", "values": [{"measurement": "Effect on pathogen expansion", "setting": "[1]", "value": "restrict pathogen expansion"}, {"measurement": "Initial lipolysis rate in SIF", "setting": "[2]; SGF-SIF sequential digestion, 90 min SGF pH 5.5 first", "value": "44.1 ± 8.8", "unit": "µmol/min"}, {"measurement": "Lipolysis by gastric lipase", "setting": "[2]; indicated by decreased total fatty acid release in SIF after RGL in SGF", "value": "~ 60%"}, {"measurement": "Hydrolysis in the stomach (gastric lipolysis)", "setting": "[2]; overall conclusion in words", "value": "extensive hydrolysis in the stomach"}, {"measurement": "Initial rate of lipolysis", "setting": "[3]; SIF alone, emulsion with 200 mg fat, pH 6.8, 37° C.", "value": "223 ± 59", "unit": "µmol/min"}, {"measurement": "Extent of digestion", "setting": "[3]; back titration to pH 11.5, overall extent after SIF and SGF-SIF (FIG. 2)", "value": "101.5 ± 0.9", "unit": "%"}, {"measurement": "Effect on antibiotic-induced lactate production", "setting": "colon epithelial cells", "value": "reduce antibiotic-induced lactate production"}]}
